What all share (format): functional, cell-based
Assay [1] deals with C8161. Put plainly: Inhibition of [DEDTC]2-Cu-induced cytotoxicity against human C8161 cells at 50 uM.
For assay [2], the system named is SK-BR-3. Put plainly: Inhibition of [DEDTC]2-Cu-induced cytotoxicity against human SK-BR-3 cells at 50 uM.
Assay [3] deals with SK-BR-3. Put plainly: Inhibition of [DEDTC]2-Cu-induced apoptosis in human SK-BR-3 cells assessed as PARP-cleavage at 50 uM.
The test system of assay [4] is C8161. Nature of the assay: Inhibition of [DEDTC]2-Cu-induced iNOS-down regulation human C8161 cells.

The record followed here is ChEMBL document CHEMBL1154910, “Nitric oxide donors or nitrite counteract copper-[dithiocarbamate](2)-mediated tumor cell death and inducible nitric oxide synthase down-regulation: possible role of a nitrosyl-copper [dithiocarbamate](2) complex” (J Med Chem, 2010).

Calls of active or inactive are those of the source. No cut-off for these calls is given here.

In the case of `NCCN(CCN)N(O)N=O`, in the assay on C8161 [1], the result was Active.

In the case of `CC(=O)N[C@@H](C(=O)O)C(C)(C)SN=O`, the outcome with C8161 [1], in the assay with SK-BR-3 [2], in the assay on SK-BR-3 [3] and in the assay on C8161 [4] was Active.
